Source: ChEMBL document CHEMBL3885881, “DrugMatrix”

Organism: Rattus norvegicus
Assay: DrugMatrix - Regimen: Daily Repeat
Assay type: toxicity, organism-based, Sprague-Dawley
Set-up: regimen Daily Repeat, gender Male, age 6-8 weeks
Conditions: in vivo, po, 1750 mg/kg, route oral GAVAGE, dose level High, vehicle .5 % CMC; for ABSOLUTE BASOPHIL / ABSOLUTE EOSINOPHIL / ABSOLUTE LYMPHOCYTE / ABSOLUTE MONOCYTE / ABSOLUTE SEGMENTED NEUTROPHIL / BASOPHIL / EOSINOPHIL / ERYTHROCYTE COUNT / HEMATOCRIT / HEMOGLOBIN / LEUKOCYTE COUNT / LYMPHOCYTE / MEAN CORPUSCULAR HEMOGLOBIN / MEAN CORPUSCULAR HEMOGLOBIN CONCENTRATION / MEAN CORPUSCULAR VOLUME / MONOCYTE / NEUTROPHIL / NUCLEATED RED BLOOD CELLS / PLATELET COUNT: tissue Blood; for ALANINE AMINOTRANSFERASE / ALBUMIN / ALKALINE PHOSPHATASE / ASPARTATE AMINOTRANSFERASE / BLOOD UREA NITROGEN / CARBON DIOXIDE / CHLORIDE / CHOLESTEROL / CREATINE PHOSPHOKINASE / CREATININE / GLUCOSE / LACTATE DEHYDROGENASE / LIPASE / PHOSPHORUS / POTASSIUM / SODIUM / TOTAL BILIRUBIN / TOTAL PROTEIN / URIC ACID: tissue Plasma

CCOC(=O)[C@H](CCc1ccccc1)N[C@H]1CCc2ccccc2N(CC(=O)O)C1=O [BENAZEPRIL]
ABSOLUTE BASOPHIL (72 h, time 3 day): 0 CELLS/uL | ABSOLUTE EOSINOPHIL (72 h, time 3 day): 139.33 CELLS/uL | ABSOLUTE LYMPHOCYTE (72 h, time 3 day): 16004 CELLS/uL | ABSOLUTE MONOCYTE (72 h, time 3 day): 0 CELLS/uL | ABSOLUTE SEGMENTED NEUTROPHIL (72 h, time 3 day): 1823.33 CELLS/uL | BASOPHIL (72 h, time 3 day): 0% | EOSINOPHIL (72 h, time 3 day): 0.67% | ERYTHROCYTE COUNT (72 h, time 3 day): 5.02 x10E6/uL | HEMATOCRIT (72 h, time 3 day): 32.27% | HEMOGLOBIN (72 h, time 3 day): 13.23 G/DL | LEUKOCYTE COUNT (72 h, time 3 day): 17.97 x10E3/uL | LYMPHOCYTE (72 h, time 3 day): 89.33% | MEAN CORPUSCULAR HEMOGLOBIN (72 h, time 3 day): 26.43 pg | MEAN CORPUSCULAR HEMOGLOBIN CONCENTRATION (72 h, time 3 day): 41.03 G/DL | MEAN CORPUSCULAR VOLUME (72 h, time 3 day): 64.37 fL | MONOCYTE (72 h, time 3 day): 0% | NEUTROPHIL (72 h, time 3 day): 10% | NUCLEATED RED BLOOD CELLS (72 h, time 3 day): 0 /100WBC | PLATELET COUNT (72 h, time 3 day): 1175.67 x10E3/uL | ALANINE AMINOTRANSFERASE (72 h, time 3 day): 47.67 u/L | ALBUMIN (72 h, time 3 day): 4.13 G/DL | ALKALINE PHOSPHATASE (72 h, time 3 day): 388 u/L | ASPARTATE AMINOTRANSFERASE (72 h, time 3 day): 83.33 u/L | BLOOD UREA NITROGEN (72 h, time 3 day): 23.67 mg/dL | CARBON DIOXIDE (72 h, time 3 day): 28.33 mmol/L | CHLORIDE (72 h, time 3 day): 101 MEQ/L | CHOLESTEROL (72 h, time 3 day): 63.67 mg/dL | CREATINE PHOSPHOKINASE (72 h, time 3 day): 244.67 u/L | CREATININE (72 h, time 3 day): 0.24 mg/dL | GLUCOSE (72 h, time 3 day): 152.33 mg/dL | LACTATE DEHYDROGENASE (72 h, time 3 day): 297.33 u/L | LIPASE (72 h, time 3 day): 9.33 u/L | PHOSPHORUS (72 h, time 3 day): 11.27 mg/dL | POTASSIUM (72 h, time 3 day): 7.42 MEQ/L | SODIUM (72 h, time 3 day): 140.93 MEQ/L | TOTAL BILIRUBIN (72 h, time 3 day): 0.23 mg/dL | TOTAL PROTEIN (72 h, time 3 day): 5.73 G/DL | URIC ACID (72 h, time 3 day): 1.73 mg/dL | ABSOLUTE BASOPHIL (120 h, time 5 day): 0 CELLS/uL | ABSOLUTE EOSINOPHIL (120 h, time 5 day): 0 CELLS/uL | ABSOLUTE LYMPHOCYTE (120 h, time 5 day): 16017 CELLS/uL | ABSOLUTE MONOCYTE (120 h, time 5 day): 660 CELLS/uL | ABSOLUTE SEGMENTED NEUTROPHIL (120 h, time 5 day): 1423 CELLS/uL | BASOPHIL (120 h, time 5 day): 0% | EOSINOPHIL (120 h, time 5 day): 0% | ERYTHROCYTE COUNT (120 h, time 5 day): 5.54 x10E6/uL | HEMATOCRIT (120 h, time 5 day): 33.43% | HEMOGLOBIN (120 h, time 5 day): 13.43 G/DL | LEUKOCYTE COUNT (120 h, time 5 day): 18.1 x10E3/uL | LYMPHOCYTE (120 h, time 5 day): 89.33% | MEAN CORPUSCULAR HEMOGLOBIN (120 h, time 5 day): 24.3 pg | MEAN CORPUSCULAR HEMOGLOBIN CONCENTRATION (120 h, time 5 day): 40.2 G/DL | MEAN CORPUSCULAR VOLUME (120 h, time 5 day): 60.5 fL | MONOCYTE (120 h, time 5 day): 3.67% | NEUTROPHIL (120 h, time 5 day): 7% | NUCLEATED RED BLOOD CELLS (120 h, time 5 day): 0.33 /100WBC | PLATELET COUNT (120 h, time 5 day): 1330 x10E3/uL | ALANINE AMINOTRANSFERASE (120 h, time 5 day): 49.67 u/L | ALBUMIN (120 h, time 5 day): 4.03 G/DL | ALKALINE PHOSPHATASE (120 h, time 5 day): 380.33 u/L | ASPARTATE AMINOTRANSFERASE (120 h, time 5 day): 85.33 u/L | BLOOD UREA NITROGEN (120 h, time 5 day): 44 mg/dL | CARBON DIOXIDE (120 h, time 5 day): 30 mmol/L | CHLORIDE (120 h, time 5 day): 104.33 MEQ/L | CHOLESTEROL (120 h, time 5 day): 74.67 mg/dL | CREATINE PHOSPHOKINASE (120 h, time 5 day): 585 u/L | CREATININE (120 h, time 5 day): 0.27 mg/dL | GLUCOSE (120 h, time 5 day): 150.67 mg/dL | LACTATE DEHYDROGENASE (120 h, time 5 day): 227 u/L | LIPASE (120 h, time 5 day): 9.33 u/L | PHOSPHORUS (120 h, time 5 day): 10.53 mg/dL | POTASSIUM (120 h, time 5 day): 6.39 MEQ/L | SODIUM (120 h, time 5 day): 143.17 MEQ/L | TOTAL BILIRUBIN (120 h, time 5 day): 0.2 mg/dL | TOTAL PROTEIN (120 h, time 5 day): 6 G/DL | URIC ACID (120 h, time 5 day): 1.53 mg/dL
